Reference: US9637483B2, “Heterocyclic compound” (TAKEDA PHARMACEUTICAL COMPANY LIMITED, priority 2013, dated 2017)

Tests used:
Assay type in all cases: biochemical
TYK2 = target: T1, TYK2 (Homo sapiens, UniProt P29597); test: TYK2 enzyme inhibition test (LANCE method); conditions: 1 μM test compound; for inhibition at 1 µM: read-out: TYK2 enzyme inhibitory activity (%, 1 μM)
T1 construct: purchased Invitrogen
Method in brief: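 Recombinant TYK2 (375 ng/mL working solution) with ULight-JAK1 peptide (300 nM working solution) and ATP (30 μM working solution) in HEPES pH 7.5 buffer with MgCl2, EGTA, DTT, Tween20, BSA, reacted 1 h at RT. EDTA-stopped, Eu-anti-phosphotyrosine TR-FRET read at 665 nm; inhibition relative to enzyme-free wells as 100%.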

JAK3 = target: T2, JAK3 (Homo sapiens, UniProt P52333); test: JAK3 enzyme inhibition test (LANCE method); conditions: 1 μM test compound; for inhibition at 1 µM: read-out: JAK3 enzyme inhibitory activity (%, 1 μM)
T2 construct: purchased Invitrogen
T2 sequence (P52333 1-1124): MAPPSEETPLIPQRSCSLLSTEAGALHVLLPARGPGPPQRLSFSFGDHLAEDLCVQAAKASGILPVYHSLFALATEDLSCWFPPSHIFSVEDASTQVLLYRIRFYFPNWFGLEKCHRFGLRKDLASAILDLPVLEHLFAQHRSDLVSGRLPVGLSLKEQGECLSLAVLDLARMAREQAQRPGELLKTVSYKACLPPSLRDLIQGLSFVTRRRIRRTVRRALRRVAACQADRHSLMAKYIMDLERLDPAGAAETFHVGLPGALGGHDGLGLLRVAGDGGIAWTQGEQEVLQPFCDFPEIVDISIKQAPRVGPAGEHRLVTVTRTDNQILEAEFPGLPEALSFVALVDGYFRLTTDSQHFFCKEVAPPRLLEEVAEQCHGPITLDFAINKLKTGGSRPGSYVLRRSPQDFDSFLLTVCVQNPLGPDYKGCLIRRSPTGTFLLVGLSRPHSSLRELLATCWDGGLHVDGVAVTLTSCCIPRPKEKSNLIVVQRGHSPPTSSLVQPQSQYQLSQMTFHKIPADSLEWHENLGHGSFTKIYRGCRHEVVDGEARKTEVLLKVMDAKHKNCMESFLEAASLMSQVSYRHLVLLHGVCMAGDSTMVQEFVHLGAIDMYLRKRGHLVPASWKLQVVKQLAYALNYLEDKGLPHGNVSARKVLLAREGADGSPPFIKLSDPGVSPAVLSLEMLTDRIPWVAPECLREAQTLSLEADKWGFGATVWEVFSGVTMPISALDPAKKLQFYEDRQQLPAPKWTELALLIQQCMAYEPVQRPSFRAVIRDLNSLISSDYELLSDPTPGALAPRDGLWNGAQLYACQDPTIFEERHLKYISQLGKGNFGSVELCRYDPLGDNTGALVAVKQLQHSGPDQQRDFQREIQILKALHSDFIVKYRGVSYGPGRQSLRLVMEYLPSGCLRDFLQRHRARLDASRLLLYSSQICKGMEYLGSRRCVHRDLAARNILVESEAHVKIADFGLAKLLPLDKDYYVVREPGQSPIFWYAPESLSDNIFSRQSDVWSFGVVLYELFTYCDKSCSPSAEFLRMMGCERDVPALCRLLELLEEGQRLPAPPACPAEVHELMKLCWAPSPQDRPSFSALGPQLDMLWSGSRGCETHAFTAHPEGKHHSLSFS
Method in brief: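 Recombinant JAK3 (12 ng/mL solution) with ULight-JAK1 peptide (300 nM solution) and ATP (15 μM solution) in HEPES pH 7.5 buffer, 1 h at room temperature. EDTA stop with Eu-anti-phosphotyrosine antibody; TR-FRET at 665 nm. Inhibition relative to enzyme-free wells as 100%.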

JAK2 = target: T3, JAK2 (Homo sapiens, UniProt O60674); test: JAK2 enzyme inhibition test (LANCE method); conditions: 1 μM test compound; for inhibition at 1 µM: read-out: JAK2 enzyme inhibitory activity (%, 1 μM)
T3 construct: purchased Invitrogen
Method in brief: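 Recombinant JAK2 (6 ng/mL solution) phosphorylated ULight-JAK1 peptide (300 nM solution) with ATP (45 μM solution) in pH 7.5 HEPES/MgCl2/DTT buffer for 1 hr at room temperature. After EDTA stop and europium anti-phosphotyrosine antibody for 1 hr, TR-FRET read at 665 nm; inhibition relative to enzyme-free wells as 100%.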

JAK1 = target: T4, JAK1 (Homo sapiens, UniProt P23458); test: JAK1 enzyme inhibition test (LANCE method); conditions: 1 μM test compound; for inhibition at 1 µM: read-out: JAK1 enzyme inhibitory activity (%, 1 μM)
T4 construct: purchased Invitrogen
Method in brief: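 TR-FRET (LANCE) with ULight-JAK1 peptide (300 nM working solution) and ATP (150 μM working solution) in HEPES pH 7.5, MgCl2, EGTA, DTT buffer; 1 h at room temperature. EDTA stop plus Eu-anti-phosphotyrosine antibody, 665 nm read after 1 h. Inhibition relative to enzyme-free wells as 100%.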

T1 sequence (P29597 whole entry): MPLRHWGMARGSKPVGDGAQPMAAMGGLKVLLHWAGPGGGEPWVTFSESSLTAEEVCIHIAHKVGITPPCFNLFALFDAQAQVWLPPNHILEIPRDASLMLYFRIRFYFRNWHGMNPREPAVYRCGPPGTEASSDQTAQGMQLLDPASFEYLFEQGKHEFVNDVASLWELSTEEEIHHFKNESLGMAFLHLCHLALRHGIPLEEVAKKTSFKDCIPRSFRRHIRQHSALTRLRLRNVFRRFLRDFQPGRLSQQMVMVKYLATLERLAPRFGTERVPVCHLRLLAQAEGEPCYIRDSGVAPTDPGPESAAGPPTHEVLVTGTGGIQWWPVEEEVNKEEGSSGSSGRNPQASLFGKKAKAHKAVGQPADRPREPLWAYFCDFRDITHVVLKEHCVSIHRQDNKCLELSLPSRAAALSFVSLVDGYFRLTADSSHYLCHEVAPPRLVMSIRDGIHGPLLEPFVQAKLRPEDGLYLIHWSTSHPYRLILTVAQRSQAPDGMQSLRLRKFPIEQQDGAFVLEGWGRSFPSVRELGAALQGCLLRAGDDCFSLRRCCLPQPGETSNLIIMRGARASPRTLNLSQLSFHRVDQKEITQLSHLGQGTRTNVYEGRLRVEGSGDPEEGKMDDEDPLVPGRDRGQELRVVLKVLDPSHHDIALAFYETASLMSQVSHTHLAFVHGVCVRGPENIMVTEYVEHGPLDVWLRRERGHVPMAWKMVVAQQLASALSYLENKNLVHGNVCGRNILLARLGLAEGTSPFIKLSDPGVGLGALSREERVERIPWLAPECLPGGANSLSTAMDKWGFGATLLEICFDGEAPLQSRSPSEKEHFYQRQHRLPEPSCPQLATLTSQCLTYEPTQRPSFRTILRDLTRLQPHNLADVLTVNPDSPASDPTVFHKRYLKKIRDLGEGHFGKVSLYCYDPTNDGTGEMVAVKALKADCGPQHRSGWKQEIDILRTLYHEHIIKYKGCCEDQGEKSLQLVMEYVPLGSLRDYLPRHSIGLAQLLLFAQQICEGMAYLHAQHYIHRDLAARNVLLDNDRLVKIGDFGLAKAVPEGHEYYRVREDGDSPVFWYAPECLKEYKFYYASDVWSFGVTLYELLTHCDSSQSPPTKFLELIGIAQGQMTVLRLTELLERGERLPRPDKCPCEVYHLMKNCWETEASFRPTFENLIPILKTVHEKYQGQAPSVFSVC
T4 sequence (P23458 whole entry): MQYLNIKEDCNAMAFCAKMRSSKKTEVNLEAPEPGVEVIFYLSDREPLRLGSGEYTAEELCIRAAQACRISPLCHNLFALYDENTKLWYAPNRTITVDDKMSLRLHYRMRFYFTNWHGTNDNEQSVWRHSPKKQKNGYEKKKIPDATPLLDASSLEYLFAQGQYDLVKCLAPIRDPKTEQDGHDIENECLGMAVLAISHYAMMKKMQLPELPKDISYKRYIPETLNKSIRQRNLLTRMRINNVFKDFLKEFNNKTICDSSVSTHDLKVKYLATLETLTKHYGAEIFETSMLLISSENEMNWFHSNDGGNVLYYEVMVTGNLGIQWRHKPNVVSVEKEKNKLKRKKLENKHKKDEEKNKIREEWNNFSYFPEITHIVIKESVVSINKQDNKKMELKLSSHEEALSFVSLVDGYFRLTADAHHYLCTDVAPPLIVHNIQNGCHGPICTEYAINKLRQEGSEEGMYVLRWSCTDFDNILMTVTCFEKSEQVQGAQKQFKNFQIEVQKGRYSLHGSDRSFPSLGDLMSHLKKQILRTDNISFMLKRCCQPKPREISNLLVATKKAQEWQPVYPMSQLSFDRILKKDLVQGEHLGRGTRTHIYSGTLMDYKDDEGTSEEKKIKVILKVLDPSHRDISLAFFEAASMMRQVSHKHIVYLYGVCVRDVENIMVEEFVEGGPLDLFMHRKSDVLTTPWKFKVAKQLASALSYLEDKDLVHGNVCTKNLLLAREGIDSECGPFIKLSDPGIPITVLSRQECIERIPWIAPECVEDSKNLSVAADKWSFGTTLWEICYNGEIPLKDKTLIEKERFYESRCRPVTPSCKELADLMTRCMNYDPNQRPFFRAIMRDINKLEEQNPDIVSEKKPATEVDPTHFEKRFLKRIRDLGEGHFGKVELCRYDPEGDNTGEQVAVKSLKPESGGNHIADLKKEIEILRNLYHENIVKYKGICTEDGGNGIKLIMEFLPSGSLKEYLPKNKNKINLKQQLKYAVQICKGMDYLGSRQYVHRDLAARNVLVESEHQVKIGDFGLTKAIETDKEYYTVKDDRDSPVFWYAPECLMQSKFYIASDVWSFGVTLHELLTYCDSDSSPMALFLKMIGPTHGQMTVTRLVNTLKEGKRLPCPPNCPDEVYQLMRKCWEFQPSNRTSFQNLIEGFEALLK
T3 sequence (O60674 whole entry): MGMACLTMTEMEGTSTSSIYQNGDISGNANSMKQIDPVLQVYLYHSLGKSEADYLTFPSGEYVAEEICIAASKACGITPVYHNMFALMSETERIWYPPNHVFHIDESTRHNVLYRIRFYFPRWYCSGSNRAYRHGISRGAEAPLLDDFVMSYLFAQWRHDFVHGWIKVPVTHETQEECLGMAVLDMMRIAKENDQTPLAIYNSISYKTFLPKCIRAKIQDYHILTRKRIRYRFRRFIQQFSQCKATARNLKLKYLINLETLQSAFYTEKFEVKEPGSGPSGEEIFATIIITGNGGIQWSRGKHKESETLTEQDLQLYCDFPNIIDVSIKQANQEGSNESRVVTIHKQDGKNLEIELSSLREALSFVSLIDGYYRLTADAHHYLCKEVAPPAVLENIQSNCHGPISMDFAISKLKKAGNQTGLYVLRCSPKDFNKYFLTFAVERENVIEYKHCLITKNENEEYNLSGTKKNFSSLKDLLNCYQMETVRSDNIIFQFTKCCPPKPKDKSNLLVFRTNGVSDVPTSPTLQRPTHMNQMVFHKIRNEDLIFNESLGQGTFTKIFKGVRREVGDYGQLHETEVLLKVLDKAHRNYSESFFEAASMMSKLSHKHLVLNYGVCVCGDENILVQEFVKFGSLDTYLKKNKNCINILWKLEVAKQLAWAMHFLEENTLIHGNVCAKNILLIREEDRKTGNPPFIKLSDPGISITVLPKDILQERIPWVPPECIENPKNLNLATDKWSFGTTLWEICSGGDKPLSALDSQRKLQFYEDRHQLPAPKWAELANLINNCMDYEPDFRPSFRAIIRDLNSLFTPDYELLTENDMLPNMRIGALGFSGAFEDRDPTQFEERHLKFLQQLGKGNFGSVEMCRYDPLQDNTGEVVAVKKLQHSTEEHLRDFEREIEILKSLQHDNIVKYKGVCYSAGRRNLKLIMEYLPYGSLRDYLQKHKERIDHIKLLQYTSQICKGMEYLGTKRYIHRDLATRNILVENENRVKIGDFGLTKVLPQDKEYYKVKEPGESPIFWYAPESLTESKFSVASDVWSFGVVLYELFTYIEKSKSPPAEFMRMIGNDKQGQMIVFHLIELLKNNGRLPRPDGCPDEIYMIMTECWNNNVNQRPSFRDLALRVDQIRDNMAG

CC(C)[C@H](C)n1cc(-c2cc(N3CCC(F)(F)C3)n(C)n2)c2[nH]nc(N)c2c1=O [Example 106, 3-amino-7-(5-(3,3-difluoropyrrolidin-1-yl)-1-methyl-1H-pyrazol-3-yl)-5-((2S)-3-methylbutan-2-yl)-1,5-dihydro-4H-pyrazolo[4,3-c]pyridin-4-one]
inhibition at 1 µM (TYK2): 100% | inhibition at 1 µM (JAK3): 99% | inhibition at 1 µM (JAK2): 99% | inhibition at 1 µM (JAK1): 97%

CC(C)[C@H](C)n1cc(-c2cc(N3CCN(S(=O)(=O)C4CC4)CC3)n(C)n2)c2[nH]nc(N)c2c1=O [Example 107, 3-amino-7-(5-(4-(cyclopropylsulfonyl)piperazin-1-yl)-1-methyl-1H-pyrazol-3-yl)-5-((2S)-3-methylbutan-2-yl)-1,5-dihydro-4H-pyrazolo[4,3-c]pyridin-4-one]
inhibition at 1 µM (TYK2): 100% | inhibition at 1 µM (JAK3): 99% | inhibition at 1 µM (JAK2): 98% | inhibition at 1 µM (JAK1): 97%

CC(C)[C@H](C)n1cc(-c2cc(N3CCN(S(C)(=O)=O)CC3)n(C)n2)c2[nH]nc(N)c2c1=O [Example 108, 3-amino-5-((2S)-3-methylbutan-2-yl)-7-(1-methyl-5-(4-(methylsulfonyl)piperazin-1-yl)-1H-pyrazol-3-yl)-1,5-dihydro-4H-pyrazolo[4,3-c]pyridin-4-one]
inhibition at 1 µM (TYK2): 100% | inhibition at 1 µM (JAK3): 99% | inhibition at 1 µM (JAK2): 98% | inhibition at 1 µM (JAK1): 98%

COC(C)(C)c1cc(-c2cn([C@@H](C)C(C)C)c(=O)c3c(N)n[nH]c23)nn1C [Example 109, 3-amino-7-(5-(2-methoxypropan-2-yl)-1-methyl-1H-pyrazol-3-yl)-5-((2S)-3-methylbutan-2-yl)-1,5-dihydro-4H-pyrazolo[4,3-c]pyridin-4-one]
inhibition at 1 µM (TYK2): 99% | inhibition at 1 µM (JAK3): 99% | inhibition at 1 µM (JAK2): 99% | inhibition at 1 µM (JAK1): 98%

COC1(c2cc(-c3cn([C@@H](C)C(C)C)c(=O)c4c(N)n[nH]c34)nn2C)CCS(=O)(=O)CC1 [Example 110, 3-amino-7-(5-(4-methoxy-1,1-dioxidotetrahydro-2H-thiopyran-4-yl)-1-methyl-1H-pyrazol-3-yl)-5-((2S)-3-methylbutan-2-yl)-1,5-dihydro-4H-pyrazolo[4,3-c]pyridin-4-one]
inhibition at 1 µM (TYK2): 100% | inhibition at 1 µM (JAK3): 99% | inhibition at 1 µM (JAK2): 99% | inhibition at 1 µM (JAK1): 89%

COC1(c2cc(-c3cn([C@@H](C)C(C)C)c(=O)c4c(N)n[nH]c34)nn2C)CN(C(=O)C(C)C)C1 [Example 111, 3-amino-7-(5-(1-isobutyryl-3-methoxyazetidin-3-yl)-1-methyl-1H-pyrazol-3-yl)-5-((2S)-3-methylbutan-2-yl)-1,5-dihydro-4H-pyrazolo[4,3-c]pyridin-4-one]
inhibition at 1 µM (TYK2): 100% | inhibition at 1 µM (JAK3): 98% | inhibition at 1 µM (JAK2): 97% | inhibition at 1 µM (JAK1): 83%

CC(C)C(C#N)n1cc(-c2cc(N3CCOCC3)n(C)n2)c2[nH]nc(N)c2c1=O (stereo not drawn) [Example 113, 2-(3-amino-7-(1-methyl-5-(morpholin-4-yl)-1H-pyrazol-3-yl)-4-oxo-1,4-dihydro-5H-pyrazolo[4,3-c]pyridin-5-yl)-3-methylbutanenitrile]
inhibition at 1 µM (TYK2): 99% | inhibition at 1 µM (JAK3): 99% | JAK2 enzyme inhibitory activity (%, 1 μM) (JAK2): 98% | JAK1 enzyme inhibitory activity (%, 1 μM) (JAK1): 97%

CC(C)C(C#N)n1cc(-c2cc(N3CCOCC3)n(C)n2)c2[nH]nc(N)c2c1=O (stereo not drawn) [Example 114, 2-(3-amino-7-(1-methyl-5-(morpholin-4-yl)-1H-pyrazol-3-yl)-4-oxo-1,4-dihydro-5H-pyrazolo[4,3-c]pyridin-5-yl)-3-methylbutanenitrile]
TYK2 enzyme inhibitory activity (%, 1 μM) (TYK2): 95% | JAK3 enzyme inhibitory activity (%, 1 μM) (JAK3): 84% | JAK2 enzyme inhibitory activity (%, 1 μM) (JAK2): 74% | JAK1 enzyme inhibitory activity (%, 1 μM) (JAK1): 68%

CC(C)C(C1CC1)n1cc(-c2cc(N3CCOCC3)n(C)n2)c2[nH]nc(N)c2c1=O (stereo not drawn) [Example 115, 3-amino-5-(1-cyclopropyl-2-methylpropyl)-7-(1-methyl-5-(morpholin-4-yl)-1H-pyrazol-3-yl)-1,5-dihydro-4H-pyrazolo[4,3-c]pyridin-4-one]
inhibition at 1 µM (TYK2): 100% | inhibition at 1 µM (JAK3): 99% | inhibition at 1 µM (JAK2): 91% | inhibition at 1 µM (JAK1): 93%

CC1CCCCC1n1cc(-c2cc(C(C)(C)O)n(C)n2)c2[nH]nc(N)c2c1=O (stereo not drawn) [Example 117, 3-amino-7-(5-(2-hydroxypropan-2-yl)-1-methyl-1H-pyrazol-3-yl)-5-(2-methylcyclohexyl)-1,5-dihydro-4H-pyrazolo[4,3-c]pyridin-4-one]
inhibition at 1 µM (TYK2): 99% | inhibition at 1 µM (JAK3): 97% | inhibition at 1 µM (JAK2): 85% | inhibition at 1 µM (JAK1): 85%

CC1CCCCC1n1cc(-c2cc(C(C)(C)O)n(C)n2)c2[nH]nc(N)c2c1=O (stereo not drawn) [Example 118, 3-amino-7-(5-(2-hydroxypropan-2-yl)-1-methyl-1H-pyrazol-3-yl)-5-(2-methylcyclohexyl)-1,5-dihydro-4H-pyrazolo[4,3-c]pyridin-4-one]
TYK2 enzyme inhibitory activity (%, 1 μM) (TYK2): 100% | JAK3 enzyme inhibitory activity (%, 1 μM) (JAK3): 99% | JAK2 enzyme inhibitory activity (%, 1 μM) (JAK2): 97% | JAK1 enzyme inhibitory activity (%, 1 μM) (JAK1): 98%

CC1CCCCC1n1cc(-c2cc(C(C)(C)O)n(C)n2)c2[nH]nc(N)c2c1=O (stereo not drawn) [Example 119, 3-amino-7-(5-(2-hydroxypropan-2-yl)-1-methyl-1H-pyrazol-3-yl)-5-(2-methylcyclohexyl)-1,5-dihydro-4H-pyrazolo[4,3-c]pyridin-4-one]
TYK2 enzyme inhibitory activity (%, 1 μM) (TYK2): 100% | JAK3 enzyme inhibitory activity (%, 1 μM) (JAK3): 100% | JAK2 enzyme inhibitory activity (%, 1 μM) (JAK2): 98% | JAK1 enzyme inhibitory activity (%, 1 μM) (JAK1): 99%

CC1CCCCC1n1cc(-c2cc(C(C)(C)O)n(C)n2)c2[nH]nc(N)c2c1=O (stereo not drawn) [Example 120, 3-amino-7-(5-(2-hydroxypropan-2-yl)-1-methyl-1H-pyrazol-3-yl)-5-(2-methylcyclohexyl)-1,5-dihydro-4H-pyrazolo[4,3-c]pyridin-4-one]
TYK2 enzyme inhibitory activity (%, 1 μM) (TYK2): 101% | JAK3 enzyme inhibitory activity (%, 1 μM) (JAK3): 100% | JAK2 enzyme inhibitory activity (%, 1 μM) (JAK2): 100% | JAK1 enzyme inhibitory activity (%, 1 μM) (JAK1): 100%

COC(C)(C)c1cc(-c2cn(-c3c(F)cccc3C#N)c(=O)c3c(N)n[nH]c23)nn1C [Example 121, 2-(3-amino-7-(5-(2-methoxypropan-2-yl)-1-methyl-1H-pyrazol-3-yl)-4-oxo-1,4-dihydro-5H-pyrazolo[4,3-c]pyridin-5-yl)-3-fluorobenzonitrile]
inhibition at 1 µM (TYK2): 100% | inhibition at 1 µM (JAK3): 97% | inhibition at 1 µM (JAK2): 98% | inhibition at 1 µM (JAK1): 98%

CC(C)N(C)c1cc(-c2cn(-c3c(F)cccc3C#N)c(=O)c3c(N)n[nH]c23)nn1C [Example 122, 2-(3-amino-7-(5-(isopropyl(methyl)amino)-1-methyl-1H-pyrazol-3-yl)-4-oxo-1,4-dihydro-5H-pyrazolo[4,3-c]pyridin-5-yl)-3-fluorobenzonitrile]
inhibition at 1 µM (TYK2): 101% | inhibition at 1 µM (JAK3): 97% | inhibition at 1 µM (JAK2): 93% | inhibition at 1 µM (JAK1): 97%
